Source: PMC4965013, “Open Source Drug Discovery with the Malaria Box Compound Collection for Neglected Diseases and Beyond” (PLoS Pathogens, 2016)
Read-outs that look alike come from different tables or passages of the source.

Columns and labels:
[1] = system: P. falciparum 3D7 trophozoites; test: Metabolomic fingerprint profiling LC-MS; type: cell-based, Plasmodium falciparum; parameters: UDP-D-glucose / ADP-D-glucose: unit not given here; conditions: for Acetyllysine / N-acetyl-L-ornithine / N-carbamoyl-L-aspartate / NADPH / dAMP / dCMP / dTDP / dTMP / dTTP / dihydroorotate / orotate / DLH / DLS/SDL/SID / PD / PEE / PVNF / 3-phosphoglycerate / ADP-D-glucose / ATP / CDP / D-sedoheptulose-1/7-phosphate / FAD / GMP / NAD+ / NADP+ / Octoluse Bisphosphate / Pyroglutamic acid / UDP-D-glucose / UDP-D-glucuronate / UDP-N-acetyl-glucosamine / UDP / UMP / UTP / a-ketoglutarate / citrate/isocitrate / cytidine / dATP / dGMP/AMP / fumarate / glucose-1/6-phosphate / glycerate / guanine / guanosine / hypoxanthine / indole / inosine / nicotinate / ornithine / phosphoenolpyruvate / pyruvate / ribose-phosphate / sarcosine/alanine / sn-glycerol-3-phosphate / succinate/methylmalonic acid / uridine / xanthosine: S2 Table Metabolomics; for Acetyllysine: metabolite Acetyllysine; for N-acetyl-L-ornithine: metabolite N-acetyl-L-ornithine; for N-carbamoyl-L-aspartate: metabolite N-carbamoyl-L-aspartate; for NADPH: metabolite NADPH; for dAMP: metabolite dAMP; for dCMP: metabolite dCMP; for dTDP: metabolite dTDP; for dTMP: metabolite dTMP; for dTTP: metabolite dTTP; for dihydroorotate: metabolite dihydroorotate; for orotate: metabolite orotate; for DLH: peptide DLH; for DLS/SDL/SID: peptide DLS/SDL/SID; for PD: peptide PD; for PEE: peptide PEE; for PVNF: peptide PVNF; for 3-phosphoglycerate: metabolite 3-phosphoglycerate; for ADP-D-glucose: metabolite ADP-D-glucose; for ATP: metabolite ATP; for CDP: metabolite CDP; for CDP / D-sedoheptulose-1/7-phosphate / GMP / Octoluse Bisphosphate / UDP / UMP / UTP / citrate/isocitrate / dGMP/AMP / fumarate / glucose-1/6-phosphate / glycerate / guanine / guanosine / inosine / pyruvate / sarcosine/alanine / succinate/methylmalonic acid / uridine / xanthosine: change in metabolite level after compound treatment; for D-sedoheptulose-1/7-phosphate: metabolite D-sedoheptulose-1/7-phosphate; for FAD: metabolite FAD; for GMP: metabolite GMP; for NAD+: metabolite NAD+; for NADP+: metabolite NADP+; for Octoluse Bisphosphate: metabolite Octoluse Bisphosphate; for Pyroglutamic acid: metabolite Pyroglutamic acid; for UDP-D-glucose: metabolite UDP-D-glucose; for UDP-D-glucuronate: metabolite UDP-D-glucuronate; for UDP-N-acetyl-glucosamine: metabolite UDP-N-acetyl-glucosamine; for UDP: metabolite UDP; for UMP: metabolite UMP; for UTP: metabolite UTP; for a-ketoglutarate: metabolite a-ketoglutarate; for citrate/isocitrate: metabolite citrate/isocitrate; for cytidine: metabolite cytidine; for dATP: metabolite dATP; for dGMP/AMP: metabolite dGMP/AMP; for fumarate: metabolite fumarate; for glucose-1/6-phosphate: metabolite glucose-1/6-phosphate; for glycerate: metabolite glycerate; for guanine: metabolite guanine; for guanosine: metabolite guanosine; for hypoxanthine: metabolite hypoxanthine; for indole: metabolite indole; for inosine: metabolite inosine; for 2_3-Diphosphoglyceric acid / 4-phosphopantothenate / 6-phospho-D-gluconate / FMN / IMP / Pyrophosphate / Sedoheptoluse bisphosphate / cyclic-AMP / glutathione disulfide / lactate / myo-inositol: metabolite level change after treatment; for nicotinate: metabolite nicotinate; for ornithine: metabolite ornithine; for phosphoenolpyruvate: metabolite phosphoenolpyruvate; for pyruvate: metabolite pyruvate; for ribose-phosphate: metabolite ribose-phosphate; for sarcosine/alanine: metabolite sarcosine/alanine; for sn-glycerol-3-phosphate: metabolite sn-glycerol-3-phosphate; for succinate/methylmalonic acid: metabolite succinate/methylmalonic acid; for uridine: metabolite uridine; for xanthosine: metabolite xanthosine
P. falciparum = test: EC50 listed in S2 Table Metabolomics (used to set the concentration tested); type: cell-based; conditions: Plasmodium falciparum, read-out: EC50_nM
P. falciparum 3D7 = test: [3H]-hypoxanthine growth inhibition, modified HCO3- or O2; type: cell-based; conditions: for IC50: Plasmodium falciparum
[2] = 3D7, read-out: P. falciparum 3D7 IC50 5% O2
[3] = EC50 used for Factor_XEC50 in metabolomics
[4] = 3D7, read-out: P. falciparum 3D7 IC50 HCO3- (2g/L), standard media
[5] = 3D7, HCO3- reduced media, read-out: P. falciparum 3D7 IC50 HCO3- reduced

CCC1(C)CC(CCNCc2ccccc2O)(c2ccc(C)cc2)CCO1 (stereo not drawn) [MMV019406]
Acetyllysine [1]: -2.519 | N-acetyl-L-ornithine [1]: -1.511 | N-carbamoyl-L-aspartate [1]: -2.298 | NADPH [1]: 0.4736 | dAMP [1]: 0.284 | dCMP [1]: -0.09039 | dTDP [1]: 0.1057 | dTMP [1]: 0.004037 | dTTP [1]: -0.4082 | dihydroorotate [1]: -2.242 | orotate [1]: -1.534 | DLH [1]: -2.275 | DLS/SDL/SID [1]: -1.841 | PD [1]: -2.354 | PEE [1]: -2.262 | PVNF [1]: -2.251 | 3-phosphoglycerate [1]: -0.1564 | ADP-D-glucose [1]: -0.3945 | ATP [1]: -0.512 | CDP [1]: 0.05599 | D-sedoheptulose-1/7-phosphate [1]: -0.4162 | FAD [1]: -0.02006 | GMP [1]: -0.3975 | NAD+ [1]: 0.008417 | NADP+ [1]: -0.1427 | Octoluse Bisphosphate [1]: -0.6015 | Pyroglutamic acid [1]: 0.2098 | UDP-D-glucose [1]: -0.0942 | UDP-D-glucuronate [1]: -0.3214 | UDP-N-acetyl-glucosamine [1]: -0.03854 | UDP [1]: -0.04555 | UMP [1]: -0.1795 | UTP [1]: -0.2654 | a-ketoglutarate [1]: -0.6947 | citrate/isocitrate [1]: 0.006162 | cytidine [1]: 0.3562 | dATP [1]: 0.258 | dGMP/AMP [1]: 0.2244 | fumarate [1]: -1.313 | glucose-1/6-phosphate [1]: -0.1461 | glycerate [1]: -0.1204 | guanine [1]: -0.06557 | guanosine [1]: -0.1693 | hypoxanthine [1]: 0.07201 | indole [1]: -0.04528 | inosine [1]: -0.2118 | 2_3-Diphosphoglyceric acid [1]: -0.5043 | 4-phosphopantothenate [1]: -0.1061 | 6-phospho-D-gluconate [1]: -0.2502 | FMN [1]: -0.1097 | IMP [1]: -0.4258 | Pyrophosphate [1]: -0.3998 | Sedoheptoluse bisphosphate [1]: -0.4722 | cyclic-AMP [1]: -0.5498 | glutathione disulfide [1]: -0.423 | lactate [1]: -0.2201 | myo-inositol [1]: -0.4627 | nicotinate [1]: 0.2145 | ornithine [1]: -0.4607 | phosphoenolpyruvate [1]: -0.0532 | pyruvate [1]: 0.03561 | ribose-phosphate [1]: -0.5159 | sarcosine/alanine [1]: -1.233 | sn-glycerol-3-phosphate [1]: -0.3535 | succinate/methylmalonic acid [1]: -0.02906 | uridine [1]: -0.4944 | xanthosine [1]: -0.9536 | EC50 (P. falciparum): 142 nM | fold change (IC50normal/ IC50hypoxia) (P. falciparum 3D7): 2.3 | IC50 (P. falciparum 3D7; 3D7, read-out: P. falciparum 3D7 IC50 1% O2): 236 nM | IC50 (P. falciparum 3D7; [2]): 540 nM

CNCCCNc1ccnc2cc(Cl)ccc12 [MMV020500]
Acetyllysine [1]: -2.213 | N-acetyl-L-ornithine [1]: -0.8185 | N-carbamoyl-L-aspartate [1]: 0.6081 | NADPH [1]: 0.8295 | dAMP [1]: 1.814 | dCMP [1]: 0.8961 | dTDP [1]: 0.7101 | dTMP [1]: 2.186 | dTTP [1]: -0.2992 | dihydroorotate [1]: 0.1598 | orotate [1]: 0.0865 | DLH [1]: -2.137 | DLS/SDL/SID [1]: -0.7574 | PD [1]: -1.597 | PEE [1]: -0.2916 | PVNF [1]: -1.612 | 3-phosphoglycerate [1]: 0.07452 | ADP-D-glucose [1]: -0.08737 | ATP [1]: -0.9785 | CDP [1]: 0.5532 | D-sedoheptulose-1/7-phosphate [1]: 1.176 | FAD [1]: -0.249 | GMP [1]: 1.138 | NAD+ [1]: 0.8214 | NADP+ [1]: -0.06525 | Octoluse Bisphosphate [1]: -0.4524 | Pyroglutamic acid [1]: 0.1099 | UDP-D-glucose [1]: -0.02951 | UDP-D-glucuronate [1]: -0.3318 | UDP-N-acetyl-glucosamine [1]: 0.05445 | UDP [1]: 0.8779 | UMP [1]: 0.5345 | UTP [1]: -0.9493 | a-ketoglutarate [1]: 0.1415 | citrate/isocitrate [1]: -0.9893 | cytidine [1]: -0.1492 | dATP [1]: -0.4735 | dGMP/AMP [1]: 1.367 | fumarate [1]: -0.1707 | glucose-1/6-phosphate [1]: -0.009969 | glycerate [1]: -0.6605 | guanine [1]: 0.2615 | guanosine [1]: -0.1451 | hypoxanthine [1]: -0.2256 | indole [1]: -0.03127 | inosine [1]: 0.04049 | 2_3-Diphosphoglyceric acid [1]: -0.286 | 4-phosphopantothenate [1]: 0.7597 | 6-phospho-D-gluconate [1]: 0.1729 | FMN [1]: 0.009843 | IMP [1]: 0.8224 | Pyrophosphate [1]: -0.4794 | Sedoheptoluse bisphosphate [1]: -0.0186 | cyclic-AMP [1]: 0.9961 | glutathione disulfide [1]: -0.1428 | lactate [1]: -0.3926 | myo-inositol [1]: -0.6279 | nicotinate [1]: 0.7754 | ornithine [1]: -0.4966 | phosphoenolpyruvate [1]: 0.07414 | pyruvate [1]: -0.1857 | ribose-phosphate [1]: -0.6716 | sarcosine/alanine [1]: -0.5483 | sn-glycerol-3-phosphate [1]: -0.4228 | succinate/methylmalonic acid [1]: 0.4498 | uridine [1]: -0.2827 | xanthosine [1]: -0.8962 | EC50 (P. falciparum; [3]): 82.2 nM | fold change (IC50reduced/IC50normal) (P. falciparum 3D7): 3.9 | IC50 (P. falciparum 3D7; [4]): 40 nM | IC50 (P. falciparum 3D7; [5]): 155 nM

CN(C)CCCNc1c2ccccc2nc2ccccc12 [MMV000448]
Acetyllysine [1]: -0.6096 | N-acetyl-L-ornithine [1]: -0.1966 | N-carbamoyl-L-aspartate [1]: -0.218 | NADPH [1]: 1.387 | dAMP [1]: -0.07728 | dCMP [1]: 0.0599 | dTDP [1]: -0.2724 | dTMP [1]: -0.1401 | dTTP [1]: 0.115 | dihydroorotate [1]: -0.03007 | orotate [1]: -0.5122 | DLH [1]: -0.2186 | DLS/SDL/SID [1]: 0.06919 | PD [1]: 0.358 | PEE [1]: 0.9721 | PVNF [1]: 0.2725 | 3-phosphoglycerate [1]: -0.1099 | ADP-D-glucose [1]: 0.3085 | ATP [1]: -0.1913 | CDP [1]: 0.02837 | D-sedoheptulose-1/7-phosphate [1]: -0.03224 | FAD [1]: -0.02095 | GMP [1]: -0.2572 | NAD+ [1]: -0.1627 | NADP+ [1]: 0.3266 | Octoluse Bisphosphate [1]: -0.105 | Pyroglutamic acid [1]: -0.3472 | UDP-D-glucose [1]: -0.06298 | UDP-D-glucuronate [1]: -0.1533 | UDP-N-acetyl-glucosamine [1]: -0.07606 | UDP [1]: 0.1622 | UMP [1]: -0.1529 | UTP [1]: 0.06952 | a-ketoglutarate [1]: -0.5075 | citrate/isocitrate [1]: -0.2451 | cytidine [1]: -0.2174 | dATP [1]: 0.09204 | dGMP/AMP [1]: -0.1732 | fumarate [1]: 0.04552 | glucose-1/6-phosphate [1]: -0.4595 | glycerate [1]: -0.9564 | guanine [1]: 0.005054 | guanosine [1]: -0.4079 | hypoxanthine [1]: -0.5072 | indole [1]: -0.3067 | inosine [1]: -0.6058 | 2_3-Diphosphoglyceric acid [1]: 0.03945 | 4-phosphopantothenate [1]: -0.1337 | 6-phospho-D-gluconate [1]: 0.01561 | FMN [1]: -0.3847 | IMP [1]: -0.1057 | Pyrophosphate [1]: 0.1028 | Sedoheptoluse bisphosphate [1]: -0.05677 | cyclic-AMP [1]: -0.3139 | glutathione disulfide [1]: -0.02692 | lactate [1]: -0.5186 | myo-inositol [1]: -0.8275 | nicotinate [1]: -0.004192 | ornithine [1]: -0.09669 | phosphoenolpyruvate [1]: -0.129 | pyruvate [1]: -0.7877 | ribose-phosphate [1]: -0.2371 | sarcosine/alanine [1]: 0.03174 | sn-glycerol-3-phosphate [1]: -0.01243 | succinate/methylmalonic acid [1]: -0.2869 | uridine [1]: -0.8523 | xanthosine [1]: -0.9083 | EC50 (P. falciparum; [3]): 235 nM | fold change (IC50normal/ IC50hypoxia) (P. falciparum 3D7): 6.1 | fold change (IC50reduced/IC50normal) (P. falciparum 3D7): 3.1 | IC50 (P. falciparum 3D7; 3D7, read-out: P. falciparum 3D7 IC50 1% O2, 1% O2 hypoxia): 59 nM | IC50 (P. falciparum 3D7; [2]): 360 nM | IC50 (P. falciparum 3D7; [4]): 190 nM | IC50 (P. falciparum 3D7; [5]): 594 nM
